Assay results published in PMC8333425, “Discovery of a dual Ras and ARF6 inhibitor from a GPCR endocytosis screen” (Nature Communications, 2021).

Legend:
Experiment in all cases: KINOMEscan kinase binding assay
[1] = target: T1, 384 kinases from the human genome (Homo sapiens, UniProt Q6PHR2); details: kinase ULK3 (Entrez ULK3)
T1 construct: purchased Eurofin/DiscoverX
In short: (§1)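 Competition binding (KINOMEscan) across 384 human kinases with compound at 10 µM. Ligand binding was expressed relative to DMSO (100%) as the average of duplicates from one experiment. S(10) selectivity score was derived.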

[2] = target: T2, 384 kinases from the human genome (Homo sapiens, UniProt P21860); details: kinase ERBB3 (Entrez ERBB3)
T2 construct: purchased Eurofin/DiscoverX
T2 sequence (P21860 20-1342): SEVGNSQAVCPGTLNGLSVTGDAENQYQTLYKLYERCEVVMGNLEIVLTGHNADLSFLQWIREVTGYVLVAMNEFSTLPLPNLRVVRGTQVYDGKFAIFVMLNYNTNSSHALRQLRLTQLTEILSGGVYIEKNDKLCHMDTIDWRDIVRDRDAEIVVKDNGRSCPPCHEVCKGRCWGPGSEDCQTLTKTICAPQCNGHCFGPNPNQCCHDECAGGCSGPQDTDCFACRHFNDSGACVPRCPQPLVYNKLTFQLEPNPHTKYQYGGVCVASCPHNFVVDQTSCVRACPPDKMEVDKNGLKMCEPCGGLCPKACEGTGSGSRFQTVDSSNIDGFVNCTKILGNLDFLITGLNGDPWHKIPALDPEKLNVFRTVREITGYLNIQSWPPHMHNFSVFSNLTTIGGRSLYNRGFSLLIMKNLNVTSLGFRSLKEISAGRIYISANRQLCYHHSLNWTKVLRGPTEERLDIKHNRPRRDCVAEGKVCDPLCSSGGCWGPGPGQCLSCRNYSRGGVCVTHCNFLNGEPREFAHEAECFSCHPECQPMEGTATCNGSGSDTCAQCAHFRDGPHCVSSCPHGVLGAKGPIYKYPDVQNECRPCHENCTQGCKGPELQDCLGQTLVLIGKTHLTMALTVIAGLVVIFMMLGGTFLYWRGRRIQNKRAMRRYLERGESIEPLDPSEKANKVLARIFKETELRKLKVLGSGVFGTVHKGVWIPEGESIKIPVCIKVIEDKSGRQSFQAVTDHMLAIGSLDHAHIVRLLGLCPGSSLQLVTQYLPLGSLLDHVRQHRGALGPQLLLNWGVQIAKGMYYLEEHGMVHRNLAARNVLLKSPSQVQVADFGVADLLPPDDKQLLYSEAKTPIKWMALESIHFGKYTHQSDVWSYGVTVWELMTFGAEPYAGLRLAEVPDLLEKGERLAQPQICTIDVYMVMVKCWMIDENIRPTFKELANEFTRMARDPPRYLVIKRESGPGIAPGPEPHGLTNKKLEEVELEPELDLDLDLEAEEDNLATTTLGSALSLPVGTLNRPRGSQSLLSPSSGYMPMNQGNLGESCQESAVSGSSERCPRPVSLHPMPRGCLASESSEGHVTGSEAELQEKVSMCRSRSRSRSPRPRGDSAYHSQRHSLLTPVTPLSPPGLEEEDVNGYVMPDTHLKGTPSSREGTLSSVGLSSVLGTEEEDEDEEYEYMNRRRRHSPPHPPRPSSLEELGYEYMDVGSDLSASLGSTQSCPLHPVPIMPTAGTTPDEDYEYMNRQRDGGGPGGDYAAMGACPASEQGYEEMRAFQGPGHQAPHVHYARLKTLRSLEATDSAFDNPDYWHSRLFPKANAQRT
In short: as §1

[3] = target: T3, 384 kinases from the human genome (Homo sapiens, UniProt P45984); details: kinase JNK2 (Entrez MAPK9)
T3 construct: purchased Eurofin/DiscoverX
In short: as §1

[4] = target: T4, 384 kinases from the human genome (Homo sapiens, UniProt P04629); details: kinase TRKA (Entrez NTRK1)
T4 construct: purchased Eurofin/DiscoverX
T4 sequence (P04629 33-796): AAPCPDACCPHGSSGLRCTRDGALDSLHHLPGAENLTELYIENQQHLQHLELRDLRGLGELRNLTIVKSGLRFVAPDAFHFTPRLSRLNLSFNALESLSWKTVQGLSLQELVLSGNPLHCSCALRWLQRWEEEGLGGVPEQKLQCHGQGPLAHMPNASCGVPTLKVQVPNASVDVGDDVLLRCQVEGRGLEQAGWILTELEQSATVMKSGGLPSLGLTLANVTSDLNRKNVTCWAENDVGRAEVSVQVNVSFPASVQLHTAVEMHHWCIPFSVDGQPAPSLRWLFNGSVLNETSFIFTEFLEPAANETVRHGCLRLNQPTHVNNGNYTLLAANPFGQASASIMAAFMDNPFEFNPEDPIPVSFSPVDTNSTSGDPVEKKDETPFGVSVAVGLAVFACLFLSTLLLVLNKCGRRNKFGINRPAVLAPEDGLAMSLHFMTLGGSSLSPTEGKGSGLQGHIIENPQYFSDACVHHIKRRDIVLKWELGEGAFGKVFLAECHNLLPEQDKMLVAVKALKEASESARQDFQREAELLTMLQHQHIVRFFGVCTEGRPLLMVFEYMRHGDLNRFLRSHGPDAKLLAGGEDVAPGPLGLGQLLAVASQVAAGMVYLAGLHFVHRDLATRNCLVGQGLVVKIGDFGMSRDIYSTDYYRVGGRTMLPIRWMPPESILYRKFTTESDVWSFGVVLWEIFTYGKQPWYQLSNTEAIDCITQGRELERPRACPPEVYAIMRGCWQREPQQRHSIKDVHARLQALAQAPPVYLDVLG
In short: as §1

[5] = target: T5, 384 kinases from the human genome (Homo sapiens, UniProt P14616); details: kinase INSRR (Entrez INSRR)
T5 construct: purchased Eurofin/DiscoverX
In short: as §1

[6] = target: T6, 384 kinases from the human genome (Homo sapiens, UniProt Q9BVS4); details: kinase RIOK2 (Entrez RIOK2)
T6 construct: purchased Eurofin/DiscoverX
In short: as §1

[7] = target: T7, 384 kinases from the human genome (Homo sapiens, UniProt P36507); details: kinase MEK2 (Entrez MAP2K2)
T7 construct: purchased Eurofin/DiscoverX
T7 sequence (P36507 whole entry): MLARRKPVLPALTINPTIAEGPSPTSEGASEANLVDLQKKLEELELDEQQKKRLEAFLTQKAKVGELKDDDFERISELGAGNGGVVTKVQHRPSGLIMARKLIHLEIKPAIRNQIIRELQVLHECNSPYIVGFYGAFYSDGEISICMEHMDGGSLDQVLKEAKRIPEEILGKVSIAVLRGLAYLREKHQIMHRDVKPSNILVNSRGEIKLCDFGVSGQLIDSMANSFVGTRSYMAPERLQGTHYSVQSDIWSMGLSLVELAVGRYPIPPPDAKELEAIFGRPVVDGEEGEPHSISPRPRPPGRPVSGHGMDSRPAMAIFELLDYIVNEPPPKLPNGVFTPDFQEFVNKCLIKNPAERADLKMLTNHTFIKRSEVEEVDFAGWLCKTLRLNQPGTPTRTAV
In short: as §1

[8] = target: T8, 384 kinases from the human genome (Homo sapiens, UniProt P36897); details: kinase TGFBR1 (Entrez TGFBR1)
T8 construct: purchased Eurofin/DiscoverX
In short: as §1

[9] = target: T9, 384 kinases from the human genome (Homo sapiens, UniProt Q9UL54); details: kinase TAOK2 (Entrez TAOK2)
T9 construct: purchased Eurofin/DiscoverX
In short: as §1

[10] = target: T10, 384 kinases from the human genome (Homo sapiens, UniProt Q02750); details: kinase MEK1 (Entrez MAP2K1)
T10 construct: purchased Eurofin/DiscoverX
T10 sequence (Q02750 whole entry): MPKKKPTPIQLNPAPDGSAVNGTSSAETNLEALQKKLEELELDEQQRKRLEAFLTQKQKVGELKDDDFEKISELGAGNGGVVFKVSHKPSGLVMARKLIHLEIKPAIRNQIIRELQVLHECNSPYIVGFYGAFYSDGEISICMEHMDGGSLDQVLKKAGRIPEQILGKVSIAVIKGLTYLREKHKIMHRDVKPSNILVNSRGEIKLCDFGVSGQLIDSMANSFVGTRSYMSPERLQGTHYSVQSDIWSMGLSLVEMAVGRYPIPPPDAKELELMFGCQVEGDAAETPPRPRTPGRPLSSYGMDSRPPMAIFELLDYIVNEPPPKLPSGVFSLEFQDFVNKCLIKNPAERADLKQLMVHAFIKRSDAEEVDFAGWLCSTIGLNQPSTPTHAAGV
In short: as §1

[11] = target: T11, 384 kinases from the human genome (Homo sapiens, UniProt Q8TD08); details: kinase ERK8 (Entrez MAPK15)
T11 construct: purchased Eurofin/DiscoverX
In short: as §1

[12] = target: T12, 384 kinases from the human genome (Homo sapiens, UniProt P21709); details: kinase EPHA1 (Entrez EPHA1)
T12 construct: purchased Eurofin/DiscoverX
T12 sequence (P21709 26-976): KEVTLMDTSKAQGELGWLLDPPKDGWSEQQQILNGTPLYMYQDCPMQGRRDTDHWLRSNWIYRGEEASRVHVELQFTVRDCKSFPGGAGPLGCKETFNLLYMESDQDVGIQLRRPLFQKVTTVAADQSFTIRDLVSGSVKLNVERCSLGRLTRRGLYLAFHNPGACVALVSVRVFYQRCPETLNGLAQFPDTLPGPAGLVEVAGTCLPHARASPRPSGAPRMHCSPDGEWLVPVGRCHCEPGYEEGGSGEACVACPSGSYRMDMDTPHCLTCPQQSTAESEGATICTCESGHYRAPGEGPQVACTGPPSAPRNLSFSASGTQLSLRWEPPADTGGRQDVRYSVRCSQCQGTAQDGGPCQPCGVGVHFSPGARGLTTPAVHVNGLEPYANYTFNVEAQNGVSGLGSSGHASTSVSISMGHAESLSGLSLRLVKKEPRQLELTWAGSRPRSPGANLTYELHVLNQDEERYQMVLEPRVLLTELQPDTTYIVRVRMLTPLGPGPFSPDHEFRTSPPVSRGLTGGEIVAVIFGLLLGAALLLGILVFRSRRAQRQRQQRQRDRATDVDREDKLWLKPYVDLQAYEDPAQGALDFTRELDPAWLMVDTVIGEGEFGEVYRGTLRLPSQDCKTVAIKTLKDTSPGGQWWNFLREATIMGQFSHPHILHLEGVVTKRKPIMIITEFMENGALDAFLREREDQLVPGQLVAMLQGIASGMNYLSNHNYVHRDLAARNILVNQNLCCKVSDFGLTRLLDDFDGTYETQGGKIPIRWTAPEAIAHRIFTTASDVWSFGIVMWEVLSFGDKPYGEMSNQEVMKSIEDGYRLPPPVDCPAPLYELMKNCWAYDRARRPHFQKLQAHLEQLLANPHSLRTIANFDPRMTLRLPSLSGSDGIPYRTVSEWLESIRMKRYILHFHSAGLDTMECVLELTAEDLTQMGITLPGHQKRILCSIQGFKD
In short: as §1

[13] = target: T13, 384 kinases from the human genome (Homo sapiens, UniProt P27361); details: kinase ERK1 (Entrez MAPK3)
T13 construct: purchased Eurofin/DiscoverX
T13 sequence (P27361 whole entry): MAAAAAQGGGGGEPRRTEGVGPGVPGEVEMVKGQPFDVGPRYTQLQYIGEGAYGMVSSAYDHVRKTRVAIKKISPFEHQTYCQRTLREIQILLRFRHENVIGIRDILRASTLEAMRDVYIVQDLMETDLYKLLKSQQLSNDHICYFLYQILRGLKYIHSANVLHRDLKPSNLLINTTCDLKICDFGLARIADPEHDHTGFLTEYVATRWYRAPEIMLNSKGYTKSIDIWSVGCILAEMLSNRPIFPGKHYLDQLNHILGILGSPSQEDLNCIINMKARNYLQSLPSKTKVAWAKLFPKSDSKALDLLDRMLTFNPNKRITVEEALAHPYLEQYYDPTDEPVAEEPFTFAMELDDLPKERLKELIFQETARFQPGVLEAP
In short: as §1

[14] = target: T14, 384 kinases from the human genome (Homo sapiens, UniProt Q6DT37); details: kinase DMPK2 (Entrez CDC42BPG)
T14 construct: purchased Eurofin/DiscoverX
In short: as §1

[15] = target: T15, 384 kinases from the human genome (Homo sapiens, UniProt O00238); details: kinase BMPR1B (Entrez BMPR1B)
T15 construct: purchased Eurofin/DiscoverX
In short: as §1

[16] = target: T16, 384 kinases from the human genome (Homo sapiens, UniProt Q06418); details: kinase TYRO3 (Entrez TYRO3)
T16 construct: purchased Eurofin/DiscoverX
In short: as §1

[17] = target: T17, 384 kinases from the human genome (Homo sapiens, UniProt P15735); details: kinase PHKG2 (Entrez PHKG2)
T17 construct: purchased Eurofin/DiscoverX
In short: as §1

[18] = target: T18, 384 kinases from the human genome (Homo sapiens, UniProt O43353); details: kinase RIPK2 (Entrez RIPK2)
T18 construct: purchased Eurofin/DiscoverX
In short: as §1

[19] = target: T19, 384 kinases from the human genome (Homo sapiens, UniProt O94804); details: kinase LOK (Entrez STK10)
T19 construct: purchased Eurofin/DiscoverX
In short: as §1

[20] = target: T20, 384 kinases from the human genome (Homo sapiens, UniProt P49674); details: kinase CSNK1E (Entrez CSNK1E)
T20 construct: purchased Eurofin/DiscoverX
In short: as §1

[21] = target: T21, 384 kinases from the human genome (Homo sapiens, UniProt Q13164); details: kinase ERK5 (Entrez MAPK7)
T21 construct: purchased Eurofin/DiscoverX
In short: as §1

[22] = target: T22, 384 kinases from the human genome (Homo sapiens, UniProt P35590); details: kinase TIE1 (Entrez TIE1)
T22 construct: purchased Eurofin/DiscoverX
In short: as §1

[23] = target: T23, 384 kinases from the human genome (Homo sapiens, UniProt P32298); details: kinase GRK4 (Entrez GRK4)
T23 construct: purchased Eurofin/DiscoverX
In short: as §1

[24] = target: T24, 384 kinases from the human genome (Homo sapiens, UniProt P29322); details: kinase EPHA8 (Entrez EPHA8)
T24 construct: purchased Eurofin/DiscoverX
In short: as §1

[25] = target: T25, 384 kinases from the human genome (Homo sapiens, UniProt P31751); details: kinase AKT2 (Entrez AKT2)
T25 construct: purchased Eurofin/DiscoverX
In short: as §1

[26] = target: T26, 384 kinases from the human genome (Homo sapiens, UniProt Q9UF33); details: kinase EPHA6 (Entrez EPHA6)
T26 construct: purchased Eurofin/DiscoverX
In short: as §1

T1 sequence (Q6PHR2 whole entry): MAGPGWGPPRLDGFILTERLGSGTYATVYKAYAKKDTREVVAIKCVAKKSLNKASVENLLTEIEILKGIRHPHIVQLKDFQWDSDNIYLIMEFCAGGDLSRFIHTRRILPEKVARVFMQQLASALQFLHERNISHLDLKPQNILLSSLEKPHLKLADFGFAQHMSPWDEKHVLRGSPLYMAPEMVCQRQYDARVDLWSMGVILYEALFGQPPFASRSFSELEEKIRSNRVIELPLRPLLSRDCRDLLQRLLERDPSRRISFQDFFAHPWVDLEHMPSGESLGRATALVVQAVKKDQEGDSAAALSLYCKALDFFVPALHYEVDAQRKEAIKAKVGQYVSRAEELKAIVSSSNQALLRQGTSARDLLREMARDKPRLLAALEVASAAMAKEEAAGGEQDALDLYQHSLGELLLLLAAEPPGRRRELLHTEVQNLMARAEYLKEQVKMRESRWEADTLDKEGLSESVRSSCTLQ

CC(C)C(=O)N1CCN(c2ccc(NC(=O)c3cc4ccccc4o3)cc2Cl)CC1 [Compound 21]
Percent Control [1]: 87%
Percent Control [2]: 83%
Percent Control [3]: 70%
Percent Control [4]: 14%
Percent Control [5]: 97%
Percent Control [6]: 100%
Percent Control [7]: 76%
Percent Control [8]: 79%
Percent Control [9]: 93%
Percent Control [10]: 76%
Percent Control [11]: 100%
Percent Control [12]: 89%
Percent Control [13]: 93%
Percent Control [14]: 77%
Percent Control [15]: 82%
Percent Control [16]: 58%
Percent Control [17]: 100%
Percent Control [18]: 81%
Percent Control [19]: 100%
Percent Control [20]: 100%
Percent Control [21]: 99%
Percent Control [22]: 100%
Percent Control [23]: 99%
Percent Control [24]: 94%
Percent Control [25]: 100%
Percent Control [26]: 75%
